Among the data in patent publication US6605628B1, “Method of using 5-(arysulfonyl)-, 5-(arylsulfanyl)-and 5-(arylsulfanyl)thiazolidine-2,4-diones for inhibition of farnesyl-protein transferase” (Wyeth Holdings Corporation, priority 2001, dated 2003) are IC50 values, retold here.

Assay [1] addresses T1, FPTase (Homo sapiens, UniProt P49354+P49356). In words: in vitro FTase Inhibition Assay, K-Ras used as substrate for farnesylation. In kind it is biochemical. The note with it: Table I. Here is the method: (§1) Enzyme test procedure: FPTase inhibition in vitro assay was performed according to James, G. L., Brown, M. S., and Goldstein, J. L., Methods in Enzymology, 1995, 255, 38-46; and Garcia, M. A., et al., J. Biol. Chem., 1993, 268, 18415-18420.
(§2) Materials—Purified FPTase (Moomaw, J. F. and Casey, P. J., J. Biol. Chem., 1992, 267, 17438-17443), purified His6-Ras, inhibitor compounds at 10 mg/ml or 10 mM in 100% DMSO, ^3H-FPP (50,000 dpm/pmol) Amersham, TCA/SDS (6%/2%), TCA (6%), Glass fiber filters ([…]), vacuum manifold or 96 well filtration plates.
(§3) Methods—1. Dilute FPTase inhibitors from stock solutions to 2.5× in 2.5% DMSO, 10 mM DTT, 0.5% octyl-B-glucoside. 2. Solution #1 is added to FPTase reaction in a volume of […]. 3. Standard reaction mix, […], contains 50 mM Tris (7.5), 10 mM ZnCl2, 3 mM MgCl2, 20 mM KCl, 5 mM DTT, 0.2% octyl-B-glucoside, 1% DMSO, […] His6-Ras, 10 ng FPTase, and various concentrations of FPTase inhibitors. 4. Incubate for 30-90 min at 25° C. 5. Stop reactions with TCA/SDS (6%/2%), hold at 4° C. for 45-60 min. 6. Filter by manifold or 96 well plate, wash filter 3-5× with TCA (6%). 7. Add scintillant to filters, measure ^3H-FPP incorporation into Ras protein.
(§4) Analysis of Results—Percent inhibition by test compounds is determined by the following:
(§5) (cpm from precipitated Ras with test compounds)−(background cpm)×100=% inhibition.
(§6) (cpm from precipitated Ras without test compounds)−(background cpm)

For assay [2], the target named is T1, FPTase. In words: in vitro FTase Inhibition Assay, H-Ras used as substrate for farnesylation. The note with it: Table I, read-out: IC50 H-Ras*. In kind it is biochemical. Here is the method:
as §1, §2, §3, §4, §5, §6

Regarding “5-[5-(2-Methyl-4-nitrophenyl)pent-4-ynyl]-5-[4-(pyridin-4-yloxy)-benzenesulfonyl]thiazolidine-2,4-dione [Example 128]”, the IC50 (as a rule, the midpoint of a concentration-inhibition curve) on FPTase [1] was in the range of 20 to 220 nM; at FPTase [2], 1 to 32 nM.
Turning to “5-[5-(4-Chloro-2-methylphenyl)pent-4-ynyl]-5-(4-trifluoromethoxybenzenesulfonyl)-thiazolidine-2,4-dione [Example 140]”, the IC50 lay within 1000 to 3600 nM against FPTase [1] and 150 to 300 nM on FPTase [2].
Regarding `COc1ccc(S(=O)(=O)C2(CCCC#Cc3cc(NC(=O)OC(C)(C)C)ccc3C)SC(=O)NC2=O)cc1` (single isomer, unassigned; less polar) [Example 222, Enantiomer of (3-{5-[5-(4-Methoxybenzenesulfonyl)-2,4-dioxothiazolidin-5-yl]pent-1-ynyl}-4-methylphenyl)carbamic Acid tert-Butyl Ester (Less Polar)], the IC50 at FPTase [1] was 33 nM; at FPTase [2] it was 3.3 nM.
Take `COc1ccc(S(=O)(=O)C2(CCCC#Cc3cc(NC(=O)OC(C)(C)C)ccc3C)SC(=O)NC2=O)cc1` (single isomer, unassigned; more polar) [Example 223, Enantiomer of (3-{5-[5-(4-Methoxybenzenesulfonyl)-2,4-dioxothiazolidin-5-yl]pent-1-ynyl}-4-methylphenyl)carbamic Acid tert-Butyl Ester (More Polar)]: the IC50 is > 1000 nM at FPTase [1] and 63 nM on FPTase [2].
Regarding `COc1ccc(S(=O)(=O)C2(CCCC#Cc3ccc(Cl)cc3)SC(=O)NC2=O)cc1` (centres unmarked) [Example 97, 5-[5-(4-Chlorophenyl)pent4-ynyl]-5-(4-methoxyphenylsulfonyl)-thiazolidine-2,4-dione], the IC50 on FPTase [1] was 3500 to 5500 nM; on FPTase [2] it was 75 to 150 nM.
In the case of `O=C1NC(=O)C(CCCC#Cc2ccc(Cl)cc2)(S(=O)(=O)c2ccc(F)cc2)S1` (centres unmarked) [Example 105, 5-[5-(4-Chlorophenyl)pent-4-ynyl]-5-(4-fluorobenzenesulfonyl)thiazolidine-2,4-dione], the IC50 against FPTase [1] lay in the range of 1500 to 1700 nM; on FPTase [2], 50 to 150 nM.
For the molecule `O=C1NC(=O)C(CCCC#Cc2ccc(Cl)cc2)(S(=O)(=O)c2cccc3cccnc23)S1` (centres unmarked) [Example 109, 5-[5-(4-Chlorophenyl)pent-4-ynyl]-5-(quinoline-8-sulfonyl)thiazolidine-2,4-dione], the IC50 fell in the range of 1400 to 2100 nM on FPTase [1] and 65 to 130 nM at FPTase [2].
With `O=C1NC(=O)C(CCCC#Cc2ccc(Cl)cc2)(S(=O)(=O)c2ccc([N+](=O)[O-])cc2)S1` (centres unmarked) [Example 110, 5-[5-(4-Chlorophenyl)pent-4-ynyl]-5-(4-nitrobenzenesulfonyl)thiazolidine-2,4-dione], the IC50 at FPTase [1] is 7000 nM; at FPTase [2], 400 nM.
For the molecule `O=C1NC(=O)C(CCCC#Cc2cc(Cl)ccc2Cl)(S(=O)(=O)c2ccc(I)cc2)S1` (centres unmarked) [Example 115, 5-[5-(2,5-Dichloro-phenyl)pent-4-ynyl]-5-(4-iodobenzenesulfonyl)-thiazolidine-2,4-dione], the half-maximal inhibitory concentration (IC50) fell in the range of 160 to 230 nM against FPTase [1] and 12 to 320 nM on FPTase [2].
In the same order, the values of `COc1ccc(S(=O)(=O)C2(CCCC#Cc3cc([N+](=O)[O-])ccc3C)SC(=O)NC2=O)cc1` (centres unmarked) [Example 122, 5-(4-Methoxybenzenesulfonyl)-5-[5-(2-methyl-5-nitrophenyl)pent-4-ynyl]thiazolidine-2,4-dione] are 230 to 1000 nM and 30 to 50 nM.
As for `COc1ccc(S(=O)(=O)C2(CCCC#Cc3cc([N+](=O)[O-])ccc3OC)SC(=O)NC2=O)cc1` (centres unmarked) [Example 123, 5-(4-Methoxybenzenesulfonyl)-5-[5-(2-methoxy-5-nitrophenyl)pent-4-ynyl]thiazolidine-2,4-dione], the IC50 fell in the range of 1000 to 2800 nM against FPTase [1] and 80 to 82 nM on FPTase [2].
Consider `COc1ccc(S(=O)(=O)C2(CCCC#Cc3ccc([N+](=O)[O-])cc3C)SC(=O)NC2=O)cc1` (centres unmarked) [Example 130, 5-(4-Methoxybenzenesulfonyl)-5-[5-(2-methyl-4-nitrophenyl)-pent-4-ynyl]-thiazolidine-2,4-dione], for which the values for the IC50 on FPTase [1] and on FPTase [2] were 320 to 1000 nM and 23 to 56 nM, respectively.
Turning to `COc1ccc(S(=O)(=O)C2(CCCC#Cc3ccc([N+](=O)[O-])cc3OC)SC(=O)NC2=O)cc1` (centres unmarked) [Example 132, 5-(4-Methoxybenzenesulfonyl)-5-[5-(2-methoxy-4-nitrophenyl)pent-4-ynyl]thiazolidine-2,4-dione], the IC50 at FPTase [1] was 210 to 1000 nM; on FPTase [2], 41 to 73 nM.
For the molecule `COc1ccc(S(=O)(=O)C2(CCCC#Cc3cc(F)cc([N+](=O)[O-])c3)SC(=O)NC2=O)cc1` (centres unmarked) [Example 133, 5-[5-(3-Fluoro-5-nitrophenyl)pent-4-ynyl]-5-(4-methoxybenzenesulfonyl)-thiazolidine-2,4-dione], the IC50 against FPTase [1] lay within 54 to 1000 nM; on FPTase [2], 40 to 200 nM.
On to `COc1ccc(S(=O)(=O)C2(CCCC#Cc3ccc(Cl)cc3C)SC(=O)NC2=O)cc1` (centres unmarked) [Example 142, 5-[5-(4-Chloro-2-methylphenyl)pent-4-ynyl]-5-(4-methoxybenzene-sulfonyl)-thiazolidine-2,4-dione], for which the figures for the half-inhibitory concentration (IC50) on FPTase [1] and at FPTase [2] were 40 to 1000 nM and 17 to 30 nM, respectively.
Take `COc1ccc(S(=O)(=O)C2(CCCC#Cc3ccc(Br)cc3C)SC(=O)NC2=O)cc1` (centres unmarked) [Example 143, 5-[5-(4-Bromo-2-methy-phenyl)pent-4-ynyl]-5-(4-methoxybenzene-sulfonyl)-thiazolidine-2,4-dione]: the IC50 was 850 nM on FPTase [1] and 30 nM at FPTase [2].
With `COc1ccc(S(=O)(=O)C2(CCCC#Cc3ccc(NC(=O)OC(C)(C)C)cc3)SC(=O)NC2=O)cc1` (centres unmarked) [Example 145, (4-{5-[5-(4-Methoxybenzensulfonyl)-2,4-dioxothiazolidin-5-yl)pent-1-ynyl}phenyl)carbamic Acid tert-Butyl Ester], the 50% inhibitory concentration (IC50) was 5600 to 10000 nM against FPTase [1] and 1200 to 1700 nM at FPTase [2].
Take `Cc1ccc(C(=O)NC(C)(C)C)cc1C#CCCCC1(S(=O)(=O)c2ccc(I)cc2)SC(=O)NC1=O` (centres unmarked) [Example 147, N-tert-Butyl-3-{5-[5-(4-iodobenzenesulfonyl)-2,4-dioxothiazol-idin-5-yl]-pent-1-ynyl}-4-methyl-benzamide]: the IC50 at FPTase [1] fell in the range of 80 to 100 nM; on FPTase [2], 6.8 to 210 nM.
For `COc1ccc(S(=O)(=O)C2(CCCC#Cc3ccc(NC(=O)OC(C)(C)C)cc3C)SC(=O)NC2=O)cc1` (centres unmarked) [Example 149, (4-{5-[5-(4-Methoxybenzenesulfonyl)-2,4-dioxo-thiazolidin-5-yl)pent-1-ynyl}-3-methylphenyl)carbamic Acid tert-Butyl Ester], the IC50 against FPTase [1] was in the range of 1000 to 4900 nM; at FPTase [2], 450 to 500 nM.
In the case of `COc1ccc(S(=O)(=O)C2(CCCC#Cc3ccc(NC(=O)OC(C)(C)C)cc3C(F)(F)F)SC(=O)NC2=O)cc1` (centres unmarked) [Example 151, (4-{5-[5-(4-Methoxybenzenesulfonyl)-2,4-dioxothiazolidin-5-yl]pent-1-ynyl}-3-trifluoromethylphenyl)-carbamic Acid tert-Butyl Ester], the IC50 was in the range of 210 to 1000 nM against FPTase [1] and 530 to 700 nM on FPTase [2].
Regarding `COc1ccc(S(=O)(=O)C2(CC#Cc3ccc(-c4ccccc4)cc3)SC(=O)NC2=O)cc1` (centres unmarked) [Example 171, 5-(3-Biphenyl-4-yl-prop-2-ynyl)-5-(4-methoxybenzenesulfonyl)-thiazolidine-2,4-dione], the IC50 on FPTase [1] was found to be 3300 nM; on FPTase [2], 200 nM.
In the same order, the values of `COc1ccc(S(=O)(=O)C2(CCCC#Cc3cc(NC(=O)OCc4ccccc4)ccc3C)SC(=O)NC2=O)cc1` (centres unmarked) [Example 175, (3-{5-[5-(4-Methoxybenzenesulfonyl)-2,4-dioxothiazolidin-5-yl]pent-1-ynyl}-4-methylphenyl)carbamic Acid Benzyl Ester] are 53 to 520 nM and 10 to 32 nM.
With `COc1ccc(S(=O)(=O)C2(CCCC#Cc3cc(NC(=O)OCc4ccc([N+](=O)[O-])cc4)ccc3C)SC(=O)NC2=O)cc1` (centres unmarked) [Example 176, (3-{5-[5-(4-Methoxybenzenesulfonyl)-2,4-dioxothiazolidin-5-yl]pent-1-ynyl}-4-methylphenyl)carbamic Acid 4-Nitro- Benzyl Ester], the results for the IC50 against FPTase [1] and at FPTase [2] were 30 to 320 nM and 3.2 to 32 nM, respectively.
Take `COc1ccc(S(=O)(=O)C2(CCCC#Cc3cc(NC(=O)Oc4ccc(Cl)cc4)ccc3C)SC(=O)NC2=O)cc1` (centres unmarked) [Example 177, (3-{5-[5-(4-Methoxybenzenesulfonyl)-2,4-dioxothiazolidin-5-yl]pent-1-ynyl}-4-methylphenyl)carbamic Acid 4-Chloro-phenyl Ester]: the IC50 was in the range of 86 to 100 nM against FPTase [1] and 11 to 32 nM on FPTase [2].
On to `COC(=O)Nc1ccc(C)c(C#CCCCC2(S(=O)(=O)c3ccc(OC)cc3)SC(=O)NC2=O)c1` (centres unmarked) [Example 178, (3-{5-[5-(4-Methoxybenzenesulfonyl)-2,4-dioxothiazolidin-5-yl]pent-1-ynyl}-4-methylphenyl)carbamic Acid Methyl Ester], for which the IC50 against FPTase [1] was 10 nM; at FPTase [2], 17 to 32 nM.
